In data set [1] the test system is activated RAW 264.7 cells. As to the kind of experiment: Measurement of NO production via nitrite detection (Griess) in IFN-γ and LPS activated RAW 264.7 cells. The data set is classed as cell-based, mouse. Conditions: for Nitrite Production / Nitrite Production as Percentage of Control: IFN-γ + LPS; for Effect on NO production, in words (Table 2): conditions of Table 2 (2 and 10 μg/ml). How it is done:
(§1) NIH/3T3 (mouse embryo fibroblast, CCRC 60008) and RAW 264.7 (mouse monocyte/macrophage, CCRC 60001) cell lines were obtained from Culture Collection and Research Center (CCRC), Taiwan. Both cell lines were cultured in Dulbecco's modified essential medium (DMEM, GIBCO BRL, Rockville, Md.) containing 1.5 g/L NaHCO3 supplemented with 10% fetal bovine serum (Hyclone, Logan, Utah) and incubated in 5% CO2 at 37° C. Cell cultures were examined for mycoplasma contamination with the fluorescent stain Hoechst 33258 (Hay et al., ATCC Quality Control Methods for Cell Lines, American Type Culture Collection, Manassas, Va., 1992, pp 23-33). All cultures described in the present example were mycoplasma-free.
Two mixtures were prepared. A mixture of collagen type I (rat tail, Sigma, St. Louis, Mo.) was dissolved in 0.1 N acetic acid to produce a 1 mg/ml collagen solution. Chitin was added to 0.1 N acetic acid until a 1 mg/ml mixture was achieved, and the mixture was sonicated for 3 minutes using a Labsonic U sonicator, (Braun Biotech International, Germany). After being autoclaved at 121° C. for 15 minutes, the chitin mixture became a slurry of fine wires. Microtiter tissue culture plates (96-well) were rinsed with Dulbecco's phosphate-buffer saline without Ca^+2 and Mg^+2 (D-PBS, GIBCO BRL). Five microliters of collagen solution or different amounts of the chitin mixture were then added to each well. The plates were then air-dried in a laminar flow hood and stored at 4° C. for up to a week.
Nitric oxide (NO) production was indirectly quantified by measuring the accumulation of nitrite (NO2^−) in the culture media using Griess reagents and sodium nitrite as a standard (Green et al., Anal. Biochem. 126:131-138, 1982; and Ignarro et al., Proc. Natl. Acad. Sci. USA 90:8103-8107, 1993). For nitrite assays, RAW 264.7 cells were subcultured in coated 96-well tissue culture plates at 1×10^5 cells/well and incubated for 24 hours. The culture media were changed to phenol red-free, serum-free DMEM containing 100 U/ml interferon-γ(IFN-γ, recombinant murine; GIBCO BRL) and 100 ng/ml lipopolysaccharide (LPS, Escherichia coli serotype 0128:B12; Sigma). The samples were then tested as described in Rollo et al., J. Leukoc. Biol. 60:397-404, 1996.
To measure the effect of chitin on NO production, cells were subcultured directly in the chitin-coated 96-well tissue culture plates. After overnight incubation, cells became adhered to the bottom of chitin-coated wells. The culture media were removed and replaced with media supplemented with IFN-γ and LPS as described above. After 48 hours incubation, […] of culture supernatants were mixed sequentially with equal volumes of 60 mM sulfanilamide (Sigma) in 3 N HCl and 4 mM N-1-naphthylethylenediamine (Sigma) and then shaken for 5 minutes at room temperature as described in Rollo et al., supra. Nitrite concentration was measured by reading the sample's absorbance at 540 nm using a microplate reader (MRX, Dynex Technologies, Inc., VA).
On the technique in general: Nitrite, measured by Griess reagent, commonly stands in for NO production.

The subject of a further data set is RAW 264.7 cells. In words: Cytotoxicity test (MTT cell growth), RAW 264.7. The data set is classed as cell-based, mouse. As for the experimental part: as §1
Two mixtures were prepared. […]
For chitin cytotoxicity experiment, cells were subcultured in 96-well tissue culture plates precoated with different amount of chitin or with collagen at a density of 2000 cells/well and incubated for 48 hours. […] Cytotoxicity was measured using the dye 3-(4,5-dimethylthiazol-2-yl)-2,5-diphenyl tetrazolium bromide (MTT; Merck Co., Germany) and following the methods described in Mosmann, J. Immunol. […]
The cytotoxicity associated with chitin and chitosan was evaluated for both mouse embryonic fibroblast NIH/3T3 cells and mouse monocyte-macrophage RAW 264.7 cells. […]

The mark [2] stands for this setting: 5 μl per well (1 mg/ml) coated, 48 hours.

On to “Collagen: collagen type I (rat tail, Sigma), coating comparison [reference compound]”, for which, in data set [1] (setting [2]), the “Nitrite Production” value was 73.4 ± 0.9 µM and the “Nitrite Production as Percentage of Control” value is 99%. Further, in data set [1] (conditions of Table 1), the “Effect on NO production, in words (Table 1)” value was “did not significantly affect NO production”.

Take `CC(=O)N[C@H]1[C@H](O[C@H]2[C@H](O)[C@@H](NC(C)=O)C(O)O[C@@H]2CO)O[C@H](CO)[C@@H](O)[C@@H]1O` (stereo partly drawn) [chitobiose, 2-acetamido-2-deoxy-4-O-(2-acetamido-2-deoxy-b-D-glucopyranosyl)-D-glucopyranose]: in data set [1] (2 μg/ml in culture medium), the “Nitrite Production” value is 64.9 ± 0.8 µM and the “Nitrite Production as Percentage of Control” value is reported as 98.9%. Also, in data set [1] (10 μg/ml in culture medium), the “Nitrite Production” value was found to be 64.1 ± 0.9 µM and the “Nitrite Production as Percentage of Control” value turned out to be 97.7%.

Consider `CC(=O)N[C@H]1[C@H](O[C@H]2[C@H](O)[C@@H](NC(C)=O)[C@H](O[C@H]3[C@H](O)[C@@H](NC(C)=O)C(O)O[C@@H]3CO)O[C@@H]2CO)O[C@H](CO)[C@@H](O[C@@H]2O[C@H](CO)[C@@H](O[C@@H]3O[C@H](CO)[C@@H](O[C@@H]4O[C@H](CO)[C@@H](O)[C@H](O)[C@H]4NC(C)=O)[C@H](O)[C@H]3NC(C)=O)[C@H](O)[C@H]2NC(C)=O)[C@@H]1O` (stereo partly shown) [chitohexose], for which, in data set [1] (2 μg/ml in culture medium), the “Nitrite Production” value was 41.3 ± 0.8 µM and the “Nitrite Production as Percentage of Control” value is listed as 63%. Besides, in data set [1] (10 μg/ml in culture medium), the “Nitrite Production” value turned out to be 35.8 ± 2.9 µM and the “Nitrite Production as Percentage of Control” value was determined as 54.5%. For the same molecule, in data set [1], the “Effect on NO production, in words (Table 2)” value is “did substantially decrease NO production”.

As for chitotetraose, in data set [1] (2 μg/ml in culture medium), the “Nitrite Production” value amounted to 63.4 ± 0.5 µM and the “Nitrite Production as Percentage of Control” value stood at 96.6%. Moreover, in data set [1] (10 μg/ml in culture medium), the “Nitrite Production” value came to 61.3 ± 0.6 µM and the “Nitrite Production as Percentage of Control” value was 93.4%.

Take `CC(=O)N[C@H]1[C@H](O[C@H]2[C@H](O)[C@@H](NC(C)=O)C(O)O[C@@H]2CO)O[C@H](CO)[C@@H](O[C@@H]2O[C@H](CO)[C@@H](O)[C@H](O)[C@H]2NC(C)=O)[C@@H]1O` (stereo partly shown) [chitotriose]: in data set [1] (2 μg/ml in culture medium), the “Nitrite Production” value is 61.5 ± 0.9 µM and the “Nitrite Production as Percentage of Control” value was 93.8%. In data set [1] (10 μg/ml in culture medium), the “Nitrite Production” value was found to be 61.1 ± 0.2 µM and the “Nitrite Production as Percentage of Control” value is listed as 93.1%.

Turning to `CC(=O)N[C@H]1C(O)O[C@H](CO)[C@@H](O)[C@@H]1O` (stereo partly shown) [NAGA, N-acetylglucosamine, reference compound], in data set [1] (10 μg/ml in culture medium), the “Nitrite Production” value turned out to be 66.7 ± 0.9 µM and the “Nitrite Production as Percentage of Control” value is 102%. In addition, in the data set with RAW 264.7 cells, the “Cytotoxicity (MTT)” value was “not cytotoxic”.

Take `CC(=O)N[C@@H]1[C@@H](O)[C@H](O[C@@H]2O[C@H](CO)[C@@H](O[C@@H]3O[C@H](CO)[C@@H](O[C@@H]4O[C@H](CO)[C@@H](O[C@@H]5O[C@H](CO)[C@@H](O)[C@H](O)[C@H]5NC(C)=O)[C@H](O)[C@H]4NC(C)=O)[C@H](O)[C@H]3NC(C)=O)[C@H](O)[C@H]2NC(C)=O)[C@@H](CO)O[C@H]1O` [chitopentose]: the entries for the “Nitrite Production” value in data set [1] (2 μg/ml in culture medium) and in data set [1] (10 μg/ml in culture medium) were 47.0 ± 0.5 µM and 42.7 ± 1.2 µM, respectively. The results for the “Nitrite Production as Percentage of Control” value in data set [1] (2 μg/ml in culture medium) and in data set [1] (10 μg/ml in culture medium) were 70.6% and 65.1%, respectively. Besides, in data set [1], the “Effect on NO production, in words (Table 2)” value is on record as “did substantially decrease NO production”.

For the molecule `N[C@H]1C(O)O[C@H](CO)[C@@H](O)[C@@H]1O` (stereo partly shown) [glucosamine, reference compound], in data set [1] (10 μg/ml in culture medium), the “Nitrite Production” value was 64.3 ± 0.8 µM and the “Nitrite Production as Percentage of Control” value worked out at 98.0%. Also, the “Cytotoxicity (MTT)” value in the data set on RAW 264.7 cells is “not cytotoxic”.
